Measured values reported in patent US12528786B2, “Plasma kallikrein inhibitors” (Merck Sharp & Dohme LLC, priority 2020, dated 2026).

The compounds below were run against T1, Human plasma kallikrein (Homo sapiens, UniProt P03952) (assay: Kallikrein Assay (fluorogenic substrate hydrolysis, AFC release)). Details: purified Human plasma kallikrein 0.5 nM; substrate Acetyl-K—P—R-AFC 100 mM; 50 mM HEPES pH 7.4.
T1 construct: yields a heavy chain (371 amino acids) and a light chain (248 amino acids); purchased Enzyme Research Laboratories
T1 sequence (P03952 391-638 limits assumed): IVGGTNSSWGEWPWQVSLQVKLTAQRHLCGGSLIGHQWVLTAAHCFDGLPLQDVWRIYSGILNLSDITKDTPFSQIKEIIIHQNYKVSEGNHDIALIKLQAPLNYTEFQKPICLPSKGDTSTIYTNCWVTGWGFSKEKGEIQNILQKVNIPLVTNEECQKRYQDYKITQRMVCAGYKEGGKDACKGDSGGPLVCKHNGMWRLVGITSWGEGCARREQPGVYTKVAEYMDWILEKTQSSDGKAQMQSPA
T1 sequence (P03952 20-390 partner limits assumed): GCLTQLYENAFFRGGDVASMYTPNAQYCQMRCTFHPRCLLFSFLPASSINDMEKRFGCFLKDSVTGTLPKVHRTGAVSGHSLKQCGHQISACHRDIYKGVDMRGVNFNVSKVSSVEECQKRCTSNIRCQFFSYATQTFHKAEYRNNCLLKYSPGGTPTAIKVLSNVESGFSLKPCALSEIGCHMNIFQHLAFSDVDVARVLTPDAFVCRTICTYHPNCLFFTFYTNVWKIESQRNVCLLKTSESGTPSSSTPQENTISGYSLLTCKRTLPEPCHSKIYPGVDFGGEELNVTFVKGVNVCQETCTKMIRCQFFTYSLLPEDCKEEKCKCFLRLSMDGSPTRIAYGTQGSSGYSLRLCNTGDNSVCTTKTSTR
Format: biochemical
Procedure, shortened: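 Enzyme–inhibitor equilibrated before substrate dilution to ≤0.2 Km; human plasma kallikrein at 0.5 nM final, Acetyl-K-P-R-AFC substrate, HEPES pH 7.4 buffer with NaCl, CaCl2, PEG 8000, at room temperature or 37° C. Linear-phase fluorescence rate gives percent inhibition, four-parameter logistic IC50, then Cheng-Prusoff Ki.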

| Compound | IC50 [nM] |
| --- | --- |
| COc1c(N2C[C@H]3C[C@H]3C2=O)ncc(C(C)n2cc(C(=O)N[C@H]3C[C@@H](c4cc(Cl)ccc4C#N)C3)nn2)c1C (single isomer, unassigned) [Example 112, N-((cis)-3-(5-chloro-2-cyanophenyl)cyclobutyl)-1-((S or R)-1-(5-methoxy-4-methyl-6-((1R,5S)-2-oxo-3-azabicyclo[3.1.0]hexan-3-yl)pyridin-3-yl)ethyl)-1H-1,2,3-triazole-4-carboxamide] | 6.7 |
| Cc1ccc(C#N)c([C@H]2C[C@@H](NC(=O)c3cn(C(C)c4cnc(N5C[C@H]6C[C@H]6C5=O)c(C)c4C)nn3)C2)c1 (single isomer, unassigned) [Example 113, N-((cis)-3-(2-cyano-5-methylphenyl)cyclobutyl)-1-((R or S)-1-(4,5-dimethyl-6-((1R,5S)-2-oxo-3-azabicyclo[3.1.0]hexan-3-yl)pyridin-3-yl)ethyl)-1H-1,2,3-triazole-4-carboxamide] | 0.4 |
| Cc1ccc(C#N)c([C@H]2C[C@@H](NC(=O)c3cn(C(C)c4cnc(N5C[C@H]6C[C@H]6C5=O)c(C)c4C)nn3)C2)c1 (single isomer, unassigned) [Example 114, N-((cis)-3-(2-cyano-5-methylphenyl)cyclobutyl)-1-((S or R)-1-(4,5-dimethyl-6-((1R,5S)-2-oxo-3-azabicyclo[3.1.0]hexan-3-yl)pyridin-3-yl)ethyl)-1H-1,2,3-triazole-4-carboxamide] | 6.1 |
| Cc1ccc(C#N)c([C@H]2C[C@@H](NC(=O)c3cn(C(C)c4cnc(N5C[C@H]6C[C@H]6C5=O)c(C)n4)nn3)C2)n1 (single isomer, unassigned) [Example 115, N-((cis)-3-(3-cyano-6-methylpyridin-2-yl)cyclobutyl)-1-((R or S)-1-(6-methyl-5-((1R,5S)-2-oxo-3-azabicyclo[3.1.0]hexan-3-yl)pyrazin-2-yl)ethyl)-1H-1,2,3-triazole-4-carboxamide] | 22.4 |
| Cc1ccc(C#N)c([C@H]2C[C@@H](NC(=O)c3cn(C(C)c4cnc(N5C[C@H]6C[C@H]6C5=O)c(C)n4)nn3)C2)n1 (single isomer, unassigned) [Example 116, N-((cis)-3-(3-cyano-6-methylpyridin-2-yl)cyclobutyl)-1-((S or R)-1-(6-methyl-5-((1R,5S)-2-oxo-3-azabicyclo[3.1.0]hexan-3-yl)pyrazin-2-yl)ethyl)-1H-1,2,3-triazole-4-carboxamide] | 6.9 |
| Cc1cc(N2C[C@H]3C[C@H]3C2=O)nnc1C(C)n1cc(C(=O)N[C@H]2C[C@@H](c3cc(Cl)ccc3C#N)C2)nn1 (single isomer, unassigned) [Example 117, N-((cis)-3-(5-chloro-2-cyanophenyl)cyclobutyl)-1-((R or S)-1-(4-methyl-6-((1R,5S)-2-oxo-3-azabicyclo[3.1.0]hexan-3-yl)pyridazin-3-yl)ethyl)-1H-1,2,3-triazole-4-carboxamide] | 968 |
| Cc1cc(N2C[C@H]3C[C@H]3C2=O)nnc1C(C)n1cc(C(=O)N[C@H]2C[C@@H](c3cc(Cl)ccc3C#N)C2)nn1 (single isomer, unassigned) [Example 118, N-((cis)-3-(5-chloro-2-cyanophenyl)cyclobutyl)-1-((S or R)-1-(4-methyl-6-((1R,5S)-2-oxo-3-azabicyclo[3.1.0]hexan-3-yl)pyridazin-3-yl)ethyl)-1H-1,2,3-triazole-4-carboxamide] | 4.7 |
| Cc1ccc(C#N)c([C@H]2C[C@@H](NC(=O)c3cn(C(C)c4cnc(N5C[C@H]6C[C@H]6C5=O)c(F)c4C)nn3)C2)c1 (single isomer, unassigned) [Example 119, N-((cis)-3-(2-cyano-5-methylphenyl)cyclobutyl)-1-((R or S)-1-(5-fluoro-4-methyl-6-((1R,5S)-2-oxo-3-azabicyclo[3.1.0]hexan-3-yl)pyridin-3-yl)ethyl)-1H-1,2,3-triazole-4-carboxamide] | 26 |
| Cc1ccc(C#N)c([C@H]2C[C@@H](NC(=O)c3cn(C(C)c4cnc(N5C[C@H]6C[C@H]6C5=O)c(F)c4C)nn3)C2)c1 (single isomer, unassigned) [Example 120, N-((cis)-3-(2-cyano-5-methylphenyl)cyclobutyl)-1-((S or R)-1-(5-fluoro-4-methyl-6-((1R,5S)-2-oxo-3-azabicyclo[3.1.0]hexan-3-yl)pyridin-3-yl)ethyl)-1H-1,2,3-triazole-4-carboxamide] | 0.6 |
| COc1nc(C(C)n2cc(C(=O)N[C@H]3C[C@@H](c4cc(Cl)ccc4C#N)C3)nn2)cnc1N1C[C@H]2C[C@H]2C1=O (single isomer, unassigned) [Example 121, N-((cis)-3-(5-chloro-2-cyanophenyl)cyclobutyl)-1-((R or S)-1-(6-methoxy-5-((1R,5S)-2-oxo-3-azabicyclo[3.1.0]hexan-3-yl)pyrazin-2-yl)ethyl)-1H-1,2,3-triazole-4-carboxamide] | 6.7 |
| COc1nc(C(C)n2cc(C(=O)N[C@H]3C[C@@H](c4cc(Cl)ccc4C#N)C3)nn2)cnc1N1C[C@H]2C[C@H]2C1=O (single isomer, unassigned) [Example 122, N-((cis)-3-(5-chloro-2-cyanophenyl)cyclobutyl)-1-((S or R)-1-(6-methoxy-5-((1R,5S)-2-oxo-3-azabicyclo[3.1.0]hexan-3-yl)pyrazin-2-yl)ethyl)-1H-1,2,3-triazole-4-carboxamide] | 3 |
| Cc1c(C(C)n2cc(C(=O)NC3CC(c4cccc(Cl)c4)C3O)nn2)cnc(N2C[C@H]3C[C@H]3C2=O)c1F (single isomer, unassigned) [Example 123, N-((1R,2R,3R or 1S,2S,3S)-3-(3-chlorophenyl)-2-hydroxycyclobutyl)-1-((R or S)-1-(5-fluoro-4-methyl-6-((1R,5S)-2-oxo-3-azabicyclo[3.1.0]hexan-3-yl)pyridin-3-yl)ethyl)-1H-1,2,3-triazole-4-carboxamide] | 41.3 |
| Cc1c(C(C)n2cc(C(=O)NC3CC(c4cccc(Cl)c4)C3O)nn2)cnc(N2C[C@H]3C[C@H]3C2=O)c1F (single isomer, unassigned) [Example 124, N-((1S,2S,3S or 1R,2R,3R)-3-(3-chlorophenyl)-2-hydroxycyclobutyl)-1-((R or S)-1-(5-fluoro-4-methyl-6-((1R,5S)-2-oxo-3-azabicyclo[3.1.0]hexan-3-yl)pyridin-3-yl)ethyl)-1H-1,2,3-triazole-4-carboxamide] | 4.5 |
| Cc1c(C(C)n2cc(C(=O)NC3CC(c4cccc(Cl)c4)C3O)nn2)cnc(N2C[C@H]3C[C@H]3C2=O)c1F (single isomer, unassigned) [Example 125, N-((1R,2R,3R or 1S,2S,3S)-3-(3-chlorophenyl)-2-hydroxycyclobutyl)-1-((S or R)-1-(5-fluoro-4-methyl-6-((1R,5S)-2-oxo-3-azabicyclo[3.1.0]hexan-3-yl)pyridin-3-yl)ethyl)-1H-1,2,3-triazole-4-carboxamide] | 130 |
| Cc1c(C(C)n2cc(C(=O)NC3CC(c4cccc(Cl)c4)C3O)nn2)cnc(N2C[C@H]3C[C@H]3C2=O)c1F (single isomer, unassigned) [Example 126, N-((1S,2S,3S or 1R,2R,3R)-3-(3-chlorophenyl)-2-hydroxycyclobutyl)-1-((S or R)-1-(5-fluoro-4-methyl-6-((1R,5S)-2-oxo-3-azabicyclo[3.1.0]hexan-3-yl)pyridin-3-yl)ethyl)-1H-1,2,3-triazole-4-carboxamide] | 414 |
| Cc1ccc(C#N)c([C@H]2C[C@@H](NC(=O)c3cn(C(C)c4nnc(N5C[C@H]6C[C@H]6C5=O)c(C)c4C)nn3)C2)n1 (single isomer, unassigned) [Example 127, N-((cis)-3-(3-cyano-6-methylpyridin-2-yl)cyclobutyl)-1-((R or S)-1-(4,5-dimethyl-6-((1R,5S)-2-oxo-3-azabicyclo[3.1.0]hexan-3-yl)pyridazin-3-yl)ethyl)-1H-1,2,3-triazole-4-carboxamide] | 702 |
| Cc1ccc(C#N)c([C@H]2C[C@@H](NC(=O)c3cn(C(C)c4nnc(N5C[C@H]6C[C@H]6C5=O)c(C)c4C)nn3)C2)n1 (single isomer, unassigned) [Example 128, N-((cis)-3-(3-cyano-6-methylpyridin-2-yl)cyclobutyl)-1-((S or R)-1-(4,5-dimethyl-6-((1R,5S)-2-oxo-3-azabicyclo[3.1.0]hexan-3-yl)pyridazin-3-yl)ethyl)-1H-1,2,3-triazole-4-carboxamide] | 2.3 |
| Cc1c(C(C)n2cc(C(=O)NC3CC(c4cccc(Cl)c4)C3O)nn2)nnc(N2C[C@H]3C[C@H]3C2=O)c1C (single isomer, unassigned) [Example 129, N-((1R,2R,3R or 1S,2S,3S))-3-(3-chlorophenyl)-2-hydroxycyclobutyl)-1-((R or S)-1-(4,5-dimethyl-6-((1R,5S)-2-oxo-3-azabicyclo[3.1.0]hexan-3-yl)pyridazin-3-yl)ethyl)-1H-1,2,3-triazole-4-carboxamide] | 839 |
| Cc1c(C(C)n2cc(C(=O)NC3CC(c4cccc(Cl)c4)C3O)nn2)nnc(N2C[C@H]3C[C@H]3C2=O)c1C (single isomer, unassigned) [Example 130, N-((1S,2S,3S or 1R,2R,3R))-3-(3-chlorophenyl)-2-hydroxycyclobutyl)-1-((R or S)-1-(4,5-dimethyl-6-((1R,5S)-2-oxo-3-azabicyclo[3.1.0]hexan-3-yl)pyridazin-3-yl)ethyl)-1H-1,2,3-triazole-4-carboxamide] | 8.5 |
| Cc1c(C(C)n2cc(C(=O)NC3CC(c4cccc(Cl)c4)C3O)nn2)nnc(N2C[C@H]3C[C@H]3C2=O)c1C (single isomer, unassigned) [Example 131, N-((1R,2R,3R or 1S,2S,3S))-3-(3-chlorophenyl)-2-hydroxycyclobutyl)-1-((S or R)-1-(4,5-dimethyl-6-((1R,5S)-2-oxo-3-azabicyclo[3.1.0]hexan-3-yl)pyridazin-3-yl)ethyl)-1H-1,2,3-triazole-4-carboxamide] | 281 |
